Data set [1] has as its target NpsA. The format is binding, Klebsiella oxytoca. Conditions: pH 6.8.
The next data set deals with K. oxytoca. The data set is classed as cell-based, Klebsiella oxytoca.
Data set [2] has as its target NpsA. The format is biochemical, Klebsiella oxytoca. Conditions: read-out: appKi.
Data set [3] relates to K. oxytoca strain MIT 10-5243. The data set is classed as cell-based, Klebsiella oxytoca. Conditions: read-out: IC50 for inhibition of tilivalline production.
Data set [4] relates to NpsA. The format is biochemical, Klebsiella oxytoca.
The next data set has as its system NpsB. The format is biochemical, Klebsiella oxytoca. Conditions: pH 8.
For data set [5], the target named is T1, NpsA (wt-NpsA) (Klebsiella oxytoca, UniProt A0A291NW45). The data set can be described thus: biochemical. The format is binding. Conditions: n = 3.
The target of data set [6] is T1, NpsA (wt-NpsA). The data set can be described thus: biochemical. Conditions: n = 3.
Data set [7] relates to Nc1ncnc2c1ncn2[C@@H]1O[C@H](COP(=O)(O)OP(=O)(O)OP(=O)(O)O)[C@@H](O)[C@H]1O. The data set is described as follows: purified protein, by the assay type. Conditions: pH 8.0.
For a further data set, the system named is Nc1c(O)cccc1C(=O)O. The data set is described as follows: purified protein, by the assay type. Conditions: pH 8.0.
The next data set has as its system O=C(O)c1cccc(O)c1. The data set can be described thus: purified protein, by the assay type. Conditions: pH 8.0.

The text below walks through data of article PMC7354218 (ACS infectious diseases, 2020).

In general, Kd refers to a measure of binding affinity in units of concentration. Read a high Kd as a looser complex. What is called IC50 is the concentration that gives 50% inhibition. For orientation: Km means the substrate concentration at which the rate is half of its maximum. The term kcat denotes the number of substrate molecules converted per active site and unit of time at saturation. The kcat/Km is the turnover number divided by the Michaelis constant.

“And” between values parts separate entries of the source, which are not always exact repeats. Identical values can stand only once. Counter-ions that a name gives are not always drawn. Like-named read-outs stand apart in the source and are kept apart here.

T1 sequence (A0A291NW45 1-506): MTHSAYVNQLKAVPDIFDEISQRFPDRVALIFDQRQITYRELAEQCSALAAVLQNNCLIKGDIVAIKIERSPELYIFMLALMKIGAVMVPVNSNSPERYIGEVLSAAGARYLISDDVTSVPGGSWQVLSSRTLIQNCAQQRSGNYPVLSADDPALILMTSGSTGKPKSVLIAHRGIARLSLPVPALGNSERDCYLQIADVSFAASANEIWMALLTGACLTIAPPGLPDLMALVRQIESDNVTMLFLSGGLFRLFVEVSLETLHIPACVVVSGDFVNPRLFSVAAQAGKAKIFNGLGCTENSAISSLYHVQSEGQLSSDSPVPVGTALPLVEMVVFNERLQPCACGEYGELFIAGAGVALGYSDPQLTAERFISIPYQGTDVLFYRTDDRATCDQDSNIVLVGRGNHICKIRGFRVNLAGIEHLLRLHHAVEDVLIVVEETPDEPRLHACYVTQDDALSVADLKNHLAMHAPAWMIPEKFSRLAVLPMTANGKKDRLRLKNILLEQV
T1 sequence (A0A291NW67 1-76 partner): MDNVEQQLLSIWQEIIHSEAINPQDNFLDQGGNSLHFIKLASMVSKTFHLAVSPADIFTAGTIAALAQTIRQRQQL

With “5′-[N-(2-Amino-3-hydroxybenzoyl)sulfamoyl]amino-5′-deoxyadenosine triethylammonium salt [Compound 5]”, the equilibrium dissociation constant (Kd) on NpsA [1] was 0.029 µM and 0.0293 µM. Further, in the data set on K. oxytoca, the “growth inhibition of K. oxytoca” value was “does not inhibit growth”. Besides, on NpsA [2], the Ki is 0.054 µM.
Take “5′-[N-(2-Aminobenzoyl)sulfamoyl]amino-5′-deoxyadenosine triethylammonium salt [Compound 9]”: the Kd at NpsA [1] was 0.485 µM. The Ki on NpsA [2] was found to be 1.2 µM.
Turning to “5′-[N-(3-Hydroxybenzoyl)sulfamoyl]amino-5′-deoxyadenosine triethylammonium salt [Compound 8]”, at NpsA [1], the affinity, expressed as Kd, was 0.112 µM. The “growth inhibition of K. oxytoca” value in the data set with K. oxytoca is “no observable growth inhibition”. Besides, the Ki on NpsA [2] was 0.23 µM. Also, the IC50 in data set [3] came out at 29 µM.
With `Nc1c(O)cccc1C(=O)O` [3-Hydroxyanthranilic acid], the “kcat (apparent)” value in the data set with NpsA [4] (pH 8) worked out at 0.78 ± 0.01 s⁻¹. Also, the Km with NpsA [4] (read-out: KM (apparent), pH 8) turned out to be 63 µM.
With `O=C(O)c1cccc(O)c1` [3-Hydroxybenzoic acid], the “fold decrease in specificity constant (kcat/KM)” value in the data set with NpsA [4] turned out to be 200 fold. Besides, in the data set with NpsA [4] (pH 8), the “kcat (apparent)” value amounted to 0.35 ± 0.07 s⁻¹. The Km in the data set with NpsA [4] (read-out: KM (apparent), pH 8) was determined as 4000 µM.
`Nc1ncnc2c1ncn2[C@@H]1O[C@H](COP(=O)(O)OP(=O)(O)OP(=O)(O)O)[C@@H](O)[C@H]1O` [ATP, adenosine triphosphate]: the “kcat (apparent)” value in the data set with NpsA [4] (pH 8) was found to be 0.82 ± 0.01 s⁻¹; in the data set with NpsB, 0.056 ± 0.002 s⁻¹. The Km is 15 µM in the data set on NpsA [4] (read-out: KM (apparent), pH 8) and 21 µM in the data set with NpsB (read-out: KM (apparent)).
With `Nc1ccccc1C(=O)O` [Anthranilic acid], the Km in the data set with NpsA [4] came out at 854 µM; in the data set with NpsA [4] (read-out: KM (apparent), pH 8), 850 µM. Moreover, the “fold decrease in specificity constant (kcat/KM)” value in the data set on NpsA [4] was found to be 52 fold. In addition, the “kcat (apparent)” value with NpsA [4] (pH 8) came to 0.29 ± 0.01 s⁻¹.
In the case of `O=C(O)[C@@H]1CCCN1` [L-Proline], in the data set with NpsB, the “kcat (apparent)” value was 0.037 ± 0.002 s⁻¹.
`Nc1c(O)cccc1C(=O)NS(=O)(=O)NC[C@H]1O[C@@H](n2cnc3c(N)ncnc32)[C@H](O)[C@@H]1O` [compound 5, 3-hydroxyanthraniloyl-AMS; 5′-[N-(2-Amino-3-hydroxybenzoyl)sulfamoyl]amino-5′-deoxyadenosine triethylammonium salt] had a Kd at NpsA (wt-NpsA) [5] of 0.0293 µM. Besides, the Ki on NpsA (wt-NpsA) [6] was determined as 0.054 µM.
Consider `Nc1ncnc2c1ncn2[C@@H]1O[C@H](CNS(=O)(=O)NC(=O)c2cccc(O)c2)[C@@H](O)[C@H]1O` [compound 8, 3-hydroxybenzoyl-AMS; 5′-[N-(3-Hydroxybenzoyl)sulfamoyl]amino-5′-deoxyadenosine triethylammonium salt], for which the dissociation constant (Kd) on NpsA (wt-NpsA) [5] was found to be 0.112 µM. For the same compound, at NpsA (wt-NpsA) [6], the Ki amounted to 0.23 µM.
Take `Nc1ccccc1C(=O)NS(=O)(=O)NC[C@H]1O[C@@H](n2cnc3c(N)ncnc32)[C@H](O)[C@@H]1O` [compound 9, anthraniloyl-AMS; 5′-[N-(2-Aminobenzoyl)sulfamoyl]amino-5′-deoxyadenosine triethylammonium salt]: the Kd on NpsA (wt-NpsA) [5] amounted to 0.485 µM. The Ki on NpsA (wt-NpsA) [6] was found to be 1.2 µM.
As to NpsA (wt-NpsA) (Klebsiella oxytoca), in data set [7], the Km result is “(1.5 ± 0.1) × 10^1 uM”, the kcat turned out to be 0.82 ± 0.01 s⁻¹ and the kcat/Km was found to be 56000 ± 4000 M⁻¹ s⁻¹. Besides, in the data set with Nc1c(O)cccc1C(=O)O, the Km entry is “(6.3 ± 0.2) × 10^1 uM”, the kcat was found to be 0.78 ± 0.01 s⁻¹ and the kcat/Km came to 18000 ± 1000 M⁻¹ s⁻¹. Besides, in the data set with O=C(O)c1cccc(O)c1, the Km entry was “(4.0 ± 0.9) × 10^3 uM”, the kcat came out at 0.35 ± 0.07 s⁻¹ and the catalytic efficiency (kcat/Km) stood at 88 ± 26 M⁻¹ s⁻¹.
